Consider 14 molecules from patent publication US20240116985A1, “STAPLED PEPTIDES AND METHODS THEREOF” (priority 2020, published 2024).

The structures appear in SMILES notation. Where two headings read alike, the source gives them in different places.

The target in this test is T1, full-length beta-Catenin (Uniprot ID P35222) (Homo sapiens, UniProt P35222).
T1 construct: 10 nM full-length beta-Catenin (Uniprot ID P35222)
T1 sequence (P35222 1-781): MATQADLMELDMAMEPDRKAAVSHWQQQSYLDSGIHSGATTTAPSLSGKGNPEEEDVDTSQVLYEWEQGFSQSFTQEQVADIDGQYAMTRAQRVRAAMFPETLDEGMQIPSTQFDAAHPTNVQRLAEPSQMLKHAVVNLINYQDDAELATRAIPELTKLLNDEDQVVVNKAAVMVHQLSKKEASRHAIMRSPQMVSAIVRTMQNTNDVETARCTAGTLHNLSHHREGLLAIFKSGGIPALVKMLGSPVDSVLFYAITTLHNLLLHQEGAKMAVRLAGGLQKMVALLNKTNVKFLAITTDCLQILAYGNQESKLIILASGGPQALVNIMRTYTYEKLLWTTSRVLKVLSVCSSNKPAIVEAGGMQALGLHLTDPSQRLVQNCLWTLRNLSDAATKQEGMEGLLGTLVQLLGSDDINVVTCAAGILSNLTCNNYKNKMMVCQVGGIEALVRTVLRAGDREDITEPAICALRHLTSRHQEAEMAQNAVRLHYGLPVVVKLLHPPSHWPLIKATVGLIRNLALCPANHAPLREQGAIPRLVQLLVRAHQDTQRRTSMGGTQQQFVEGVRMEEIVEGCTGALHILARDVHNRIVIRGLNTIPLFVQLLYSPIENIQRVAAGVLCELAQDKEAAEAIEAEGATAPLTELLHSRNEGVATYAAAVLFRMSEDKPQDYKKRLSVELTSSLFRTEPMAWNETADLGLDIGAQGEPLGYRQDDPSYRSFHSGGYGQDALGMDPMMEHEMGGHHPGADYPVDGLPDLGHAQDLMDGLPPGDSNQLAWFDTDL
The test can be described thus: Fluorescence polarization IC50 (beta-catenin / 5FAM-TCF4 10-53 competition). Particulars: fluorescence polarization. The class given is binding.

Turning to `CCOC(=O)C[C@@H]1NC(=O)[C@]2(CC=CCCCC3(CCCC=CCCCOC(=O)N4CC[C@@](C(=O)N[C@@H](Cc5ccsc5)C(=O)N[C@@H](Cc5csc6ccccc56)C(=O)N[C@@H](CCC(N)=O)C(N)=O)(C4)NC(=O)[C@H](CC(C)C)NC(=O)[C@H](Cc4ccccc4)NC(=O)[C@H](C)NC(=O)[C@H](C)NC(=O)[C@H](CC(=O)O)NC(=O)[C@H](CC(=O)O)NC3=O)NC(=O)[C@H](CC(C)(C)C)NC1=O)CCCN2C(C)=O` (stereo partly drawn) [I-2356, Ac-PL3-[Et]AspE-Npg-B5-Asp-Asp-Ala-Ala-Phe-Leu-PyrS2-3Thi-BztA-Gln-NH2], the half-maximal inhibitory concentration (IC50) (read-out: beta-Catenin FP IC50) is 5270 nM.

As for `CCOC(=O)C[C@@H]1NC(=O)[C@H](CC(=O)O)NC(=O)C2(CCCC=CCCCOC(=O)N3CC[C@@](C(=O)N[C@@H](Cc4ccsc4)C(=O)N[C@@H](Cc4csc5ccccc45)C(=O)N[C@@H](CCC(N)=O)C(N)=O)(C3)NC(=O)[C@H](CC(C)C)NC(=O)[C@H](Cc3ccccc3)NC(=O)[C@H](C)NC(=O)[C@H](C)NC1=O)CCCC=CC[C@]1(CCCN1C(C)=O)C(=O)N[C@@H](CC(=O)O)C(=O)N[C@@H](CC(C)(C)C)C(=O)N2` (stereo partly drawn) [I-2358, Ac-PL3-Asp-Npg-B5-Asp-[Et]AspE-Ala-Ala-Phe-Leu-PyrS2-3Thi-BztA-Gln-NH2], the half-inhibitory concentration (IC50) (read-out: beta-Catenin FP IC50) came out at 463 nM. With `COC(=O)N1CCC[C@]12CC=CCCCC1(CCCC=CCCCOC(=O)N3CC[C@@](C(=O)N[C@@H](Cc4ccsc4)C(=O)N[C@@H](Cc4csc5ccccc45)C(=O)N[C@@H](Cc4c[nH]cn4)C(N)=O)(C3)NC(=O)[C@H](CCC(N)=O)NC(=O)[C@H](Cc3ccccc3)NC(=O)[C@H](C)NC(=O)[C@H](C)NC(=O)[C@H](CC(=O)O)NC(=O)[C@H](CC(=O)O)NC1=O)NC(=O)[C@H](CC(C)(C)C)NC(=O)[C@H](CC(=O)O)NC2=O` (stereo partly drawn) [I-2362, CO2Me-PL3-Asp-Npg-B5-Asp-Asp-Ala-Ala-Phe-Gln-PyrS2-3Thi-BztA-His-NH2], for the setting “read-out: beta-Catenin FP IC50”, the 50% inhibitory concentration (IC50) is 66 nM.

Turning to `CCCCOC(=O)N1CCC[C@]12CC=CCCCC1(CCCC=CCCCOC(=O)N3CC[C@@](C(=O)N[C@@H](Cc4ccsc4)C(=O)N[C@@H](Cc4csc5ccccc45)C(=O)N[C@@H](Cc4c[nH]cn4)C(N)=O)(C3)NC(=O)[C@H](CCC(N)=O)NC(=O)[C@H](Cc3ccccc3)NC(=O)[C@H](C)NC(=O)[C@H](C)NC(=O)[C@H](CC(=O)O)NC(=O)[C@H](CC(=O)O)NC1=O)NC(=O)[C@H](CC(C)(C)C)NC(=O)[C@H](CC(=O)O)NC2=O` (stereo partly drawn) [I-2363, CO2Bu-PL3-Asp-Npg-B5-Asp-Asp-Ala-Ala-Phe-Gln-PyrS2-3Thi-BztA-His-NH2], the concentration for half-maximal inhibition (IC50) (read-out: beta-Catenin FP IC50) was found to be 44 nM. As for `CC(C)COC(=O)N1CCC[C@]12CC=CCCCC1(CCCC=CCCCOC(=O)N3CC[C@@](C(=O)N[C@@H](Cc4ccsc4)C(=O)N[C@@H](Cc4csc5ccccc45)C(=O)N[C@@H](Cc4c[nH]cn4)C(N)=O)(C3)NC(=O)[C@H](CCC(N)=O)NC(=O)[C@H](Cc3ccccc3)NC(=O)[C@H](C)NC(=O)[C@H](C)NC(=O)[C@H](CC(=O)O)NC(=O)[C@H](CC(=O)O)NC1=O)NC(=O)[C@H](CC(C)(C)C)NC(=O)[C@H](CC(=O)O)NC2=O` (stereo partly drawn) [I-2364, CO2iBu-PL3-Asp-Npg-B5-Asp-Asp-Ala-Ala-Phe-Gln-PyrS2-3Thi-BztA-His-NH2], where the note is “read-out: beta-Catenin FP IC50”, the half-inhibitory concentration (IC50) was 116 nM. In the case of `CCOC(=O)CC[C@@H]1NC(=O)[C@H](CC(=O)O)NC(=O)C2(CCCC=CCCCOC(=O)N3CC[C@@](C(=O)N[C@@H](Cc4ccsc4)C(=O)N[C@@H](Cc4csc5ccccc45)C(=O)N[C@@H](CCC(N)=O)C(N)=O)(C3)NC(=O)[C@H](CC(C)C)NC(=O)[C@H](Cc3ccccc3)NC(=O)[C@H](C)NC(=O)[C@H](C)NC1=O)CCCC=CC[C@]1(CCCN1C(C)=O)C(=O)N[C@@H](CC(=O)O)C(=O)N[C@@H](CC(C)(C)C)C(=O)N2` (stereo partly drawn) [I-2365, Ac-PL3-Asp-Npg-B5-Asp-[Et]GluE-Ala-Ala-Phe-Leu-PyrS2-3Thi-BztA-Gln-NH2], under “read-out: beta-Catenin FP IC50”, the half-inhibitory concentration (IC50) was found to be 3440 nM. Consider `COC(=O)CC[C@@H]1NC(=O)[C@H](CC(=O)O)NC(=O)C2(CCCC=CCCCOC(=O)N3CC[C@@](C(=O)N[C@@H](Cc4ccsc4)C(=O)N[C@@H](Cc4csc5ccccc45)C(=O)N[C@@H](CCC(N)=O)C(N)=O)(C3)NC(=O)[C@H](CC(C)C)NC(=O)[C@H](Cc3ccccc3)NC(=O)[C@H](C)NC(=O)[C@H](C)NC1=O)CCCC=CC[C@]1(CCCN1C(C)=O)C(=O)N[C@@H](CC(=O)O)C(=O)N[C@@H](CC(C)(C)C)C(=O)N2` (stereo partly drawn) [I-2366, Ac-PL3-Asp-Npg-B5-Asp-[Me]GluE-Ala-Ala-Phe-Leu-PyrS2-3Thi-BztA-Gln-NH2], for which, under “read-out: beta-Catenin FP IC50”, the IC50 turned out to be 1740 nM. As for `CC(=O)N1CCC[C@]12CC=CCCCC1(CCCC=CCCCOC(=O)N3CC[C@@](C(=O)N[C@@H](Cc4ccccc4C(F)(F)F)C(=O)N[C@@H](Cc4csc5ccccc45)C(=O)N[C@@H](CO)C(N)=O)(C3)NC(=O)[C@H](CC(C)C)NC(=O)[C@H](Cc3ccccc3)NC(=O)[C@H](C)NC(=O)[C@H](C)NC(=O)[C@H](Cn3cc(CCC(=O)O)nn3)NC(=O)[C@H](CC(=O)O)NC1=O)NC(=O)[C@H](CC(C)(C)C)NC(=O)[C@H](CC(=O)O)NC2=O` (stereo partly drawn) [I-2370, Ac-PL3-Asp-Npg-B5-Asp-[CH2CH2CO2H]TriAzDap-Ala-Ala-Phe-Leu-PyrS2-2F3MeF-BztA-Ser-NH2], where the note is “read-out: beta-Catenin FP IC50”, the concentration for half-maximal inhibition (IC50) was determined as 12 nM. On to `CC(C)C[C@@H]1NC(=O)[C@H](Cc2ccccc2)NC(=O)[C@H](C)NC(=O)[C@H](C)NC(=O)[C@H](CN(CC(=O)O)CC(F)(F)F)NC(=O)[C@H](CC(=O)O)NC(=O)C2(CCCCCCCCOC(=O)N3CC[C@@](C(=O)N[C@@H](Cc4ccsc4)C(=O)N[C@@H](Cc4csc5ccccc45)C(=O)N[C@@H](CCC(N)=O)C(N)=O)(C3)NC1=O)CCCCCCOc1cccc(c1)C(=O)N[C@@H](CC(=O)O)C(=O)N[C@@H](CC(C)(C)C)C(=O)N2` (stereo partly drawn) [I-2376, BzAm3OAllyl-Asp-Npg-B5-Asp-TfeGA-Ala-Ala-Phe-Leu-PyrS2-3Thi-BztA-Gln-NH2], for which the IC50 (read-out: beta-Catenin FP IC50) is 352 nM.

With `CC(C)C[C@@H]1NC(=O)[C@H](Cc2ccccc2)NC(=O)[C@H](C)NC(=O)[C@H](C)NC(=O)[C@H](CN(CC(=O)O)CC(F)(F)F)NC(=O)[C@H](CC(=O)O)NC(=O)C2(CCCCCCCCOC(=O)N3CC[C@@](C(=O)N[C@@H](Cc4ccsc4)C(=O)N[C@@H](Cc4csc5ccccc45)C(=O)N[C@@H](CCC(N)=O)C(N)=O)(C3)NC1=O)CCCCCCOc1cccc(c1)C(=O)N1CCC[C@H]1C(=O)N[C@@H](CC(=O)O)C(=O)N[C@@H](CC(C)(C)C)C(=O)N2` (stereo partly drawn) [I-2377, ProBzAm3OAllyl-Asp-Npg-B5-Asp-TfeGA-Ala-Ala-Phe-Leu-PyrS2-3Thi-BztA-Gln-NH2], the half-maximal inhibitory concentration (IC50) (read-out: beta-Catenin FP IC50) turned out to be 978 nM. In the case of `CC(=O)N1CCC[C@]12CC=CCCCC1(CCCC=CCCCOC(=O)N3CC[C@@](C(=O)N[C@@H](Cc4ccccc4C(F)(F)F)C(=O)N[C@@H](Cc4csc5ccccc45)C(=O)N[C@@H](CCC(N)=O)C(=O)N[C@@H](CC(C)C)C(=O)NC4(C(N)=O)CC4)(C3)NC(=O)[C@H](CC(C)C)NC(=O)[C@H](Cc3ccccc3)NC(=O)[C@H](C)NC(=O)[C@H](C)NC(=O)[C@H](Cc3cccc(C(=O)O)c3)NC(=O)[C@H](CC(=O)O)NC1=O)NC(=O)[C@H](CC(C)(C)C)NC(=O)[C@H](CC(=O)O)NC2=O` (stereo partly drawn) [I-2389, Ac-PL3-Asp-Npg-B5-Asp-3COOHF-Ala-Ala-Phe-Leu-PyrS2-2F3MeF-BztA-Gln-Leu-Cpg-NH2], the IC50 (read-out: beta-Catenin FP IC50) came to 72 nM.

On to `CC(C)C[C@@H]1NC(=O)[C@H](Cc2ccccc2)NC(=O)[C@H](C)NC(=O)[C@H](C)NC(=O)[C@H](CN(CC(=O)O)CC(F)(F)F)NC(=O)[C@H](CC(=O)O)NC(=O)C2(CCCCCCCCOC(=O)N3CC[C@@](C(=O)N[C@@H](Cc4ccsc4)C(=O)N[C@@H](Cc4csc5ccccc45)C(=O)N[C@@H](CCC(N)=O)C(N)=O)(C3)NC1=O)CCCCCCOc1cccc(c1)CC(=O)N[C@@H](CC(=O)O)C(=O)N[C@@H](CC(C)(C)C)C(=O)N2` (stereo partly drawn) [I-2404, PAc3OAllyl-Asp-Npg-B5-Asp-TfeGA-Ala-Ala-Phe-Leu-PyrS2-3Thi-BztA-Gln-NH2], for which the IC50 (read-out: beta-Catenin FP IC50) is 781 nM. Same read-out and setting: as for `CC(C)C[C@@H]1NC(=O)[C@H](Cc2ccccc2)NC(=O)[C@H](C)NC(=O)[C@H](C)NC(=O)[C@H](CN(CC(=O)O)CC(F)(F)F)NC(=O)[C@H](CC(=O)O)NC(=O)C2(CCCCCCCCOC(=O)N3CC[C@@](C(=O)N[C@@H](Cc4ccsc4)C(=O)N[C@@H](Cc4csc5ccccc45)C(=O)N[C@@H](CCC(N)=O)C(N)=O)(C3)NC1=O)CCCCCCOc1cccc(c1)CC(=O)N1CCC[C@H]1C(=O)N[C@@H](CC(=O)O)C(=O)N[C@@H](CC(C)(C)C)C(=O)N2` (stereo partly drawn) [I-2405, ProPAc3OAllyl-Asp-Npg-B5-Asp-TfeGA-Ala-Ala-Phe-Leu-PyrS2-3Thi-BztA-Gln-NH2], the figure is 568 nM.

On to `CC(=O)N1CC2CC1C(=O)N[C@@H](CC(=O)O)C(=O)N[C@@H](CC(C)(C)C)C(=O)NC1(CCCCCCCCOC(=O)N3CC[C@@](C(=O)N[C@@H](Cc4ccsc4)C(=O)N[C@@H](Cc4csc5ccccc45)C(=O)N[C@@H](CCC(N)=O)C(N)=O)(C3)NC(=O)[C@H](CC(C)C)NC(=O)[C@H](Cc3ccccc3)NC(=O)[C@H](C)NC(=O)[C@H](C)NC(=O)[C@H](CN(CC(=O)O)CC(F)(F)F)NC(=O)[C@H](CC(=O)O)NC1=O)CCCCCCOc1cccc(c1)CC(=O)O2` (stereo partly drawn) [I-2406, Ac-HypPAc3OAllyl-Asp-Npg-B5-Asp-TfeGA-Ala-Ala-Phe-Leu-PyrS2-3Thi-BztA-Gln-NH2], for which the half-inhibitory concentration (IC50) (beta-Catenin FP IC50 (nM)) amounted to 242 nM.
